Reference: publication PMC7915588, “Polyphyllin D Shows Anticancer Effect through a Selective Inhibition of Src Homology Region 2-Containing Protein Tyrosine Phosphatase-2 (SHP2)” (Molecules, 2021)

Assays:
Assay in all cases: biochemical
Set-up in all cases: Fluorogenic phosphatase assay, DiFMUP hydrolysis by recombinant PTPs, initial velocity, Ex/Em 355/460 nm
Conditions in all cases: read-out: Inhibition by 20 µM polyphyllin D (%)
PTPN13 (PTP-BAS) = molecular target: T1, PTPN13 (PTP-BAS) (Homo sapiens, UniProt Q12923)
T1 construct: 2095-2490
T1 sequence (Q12923 whole entry): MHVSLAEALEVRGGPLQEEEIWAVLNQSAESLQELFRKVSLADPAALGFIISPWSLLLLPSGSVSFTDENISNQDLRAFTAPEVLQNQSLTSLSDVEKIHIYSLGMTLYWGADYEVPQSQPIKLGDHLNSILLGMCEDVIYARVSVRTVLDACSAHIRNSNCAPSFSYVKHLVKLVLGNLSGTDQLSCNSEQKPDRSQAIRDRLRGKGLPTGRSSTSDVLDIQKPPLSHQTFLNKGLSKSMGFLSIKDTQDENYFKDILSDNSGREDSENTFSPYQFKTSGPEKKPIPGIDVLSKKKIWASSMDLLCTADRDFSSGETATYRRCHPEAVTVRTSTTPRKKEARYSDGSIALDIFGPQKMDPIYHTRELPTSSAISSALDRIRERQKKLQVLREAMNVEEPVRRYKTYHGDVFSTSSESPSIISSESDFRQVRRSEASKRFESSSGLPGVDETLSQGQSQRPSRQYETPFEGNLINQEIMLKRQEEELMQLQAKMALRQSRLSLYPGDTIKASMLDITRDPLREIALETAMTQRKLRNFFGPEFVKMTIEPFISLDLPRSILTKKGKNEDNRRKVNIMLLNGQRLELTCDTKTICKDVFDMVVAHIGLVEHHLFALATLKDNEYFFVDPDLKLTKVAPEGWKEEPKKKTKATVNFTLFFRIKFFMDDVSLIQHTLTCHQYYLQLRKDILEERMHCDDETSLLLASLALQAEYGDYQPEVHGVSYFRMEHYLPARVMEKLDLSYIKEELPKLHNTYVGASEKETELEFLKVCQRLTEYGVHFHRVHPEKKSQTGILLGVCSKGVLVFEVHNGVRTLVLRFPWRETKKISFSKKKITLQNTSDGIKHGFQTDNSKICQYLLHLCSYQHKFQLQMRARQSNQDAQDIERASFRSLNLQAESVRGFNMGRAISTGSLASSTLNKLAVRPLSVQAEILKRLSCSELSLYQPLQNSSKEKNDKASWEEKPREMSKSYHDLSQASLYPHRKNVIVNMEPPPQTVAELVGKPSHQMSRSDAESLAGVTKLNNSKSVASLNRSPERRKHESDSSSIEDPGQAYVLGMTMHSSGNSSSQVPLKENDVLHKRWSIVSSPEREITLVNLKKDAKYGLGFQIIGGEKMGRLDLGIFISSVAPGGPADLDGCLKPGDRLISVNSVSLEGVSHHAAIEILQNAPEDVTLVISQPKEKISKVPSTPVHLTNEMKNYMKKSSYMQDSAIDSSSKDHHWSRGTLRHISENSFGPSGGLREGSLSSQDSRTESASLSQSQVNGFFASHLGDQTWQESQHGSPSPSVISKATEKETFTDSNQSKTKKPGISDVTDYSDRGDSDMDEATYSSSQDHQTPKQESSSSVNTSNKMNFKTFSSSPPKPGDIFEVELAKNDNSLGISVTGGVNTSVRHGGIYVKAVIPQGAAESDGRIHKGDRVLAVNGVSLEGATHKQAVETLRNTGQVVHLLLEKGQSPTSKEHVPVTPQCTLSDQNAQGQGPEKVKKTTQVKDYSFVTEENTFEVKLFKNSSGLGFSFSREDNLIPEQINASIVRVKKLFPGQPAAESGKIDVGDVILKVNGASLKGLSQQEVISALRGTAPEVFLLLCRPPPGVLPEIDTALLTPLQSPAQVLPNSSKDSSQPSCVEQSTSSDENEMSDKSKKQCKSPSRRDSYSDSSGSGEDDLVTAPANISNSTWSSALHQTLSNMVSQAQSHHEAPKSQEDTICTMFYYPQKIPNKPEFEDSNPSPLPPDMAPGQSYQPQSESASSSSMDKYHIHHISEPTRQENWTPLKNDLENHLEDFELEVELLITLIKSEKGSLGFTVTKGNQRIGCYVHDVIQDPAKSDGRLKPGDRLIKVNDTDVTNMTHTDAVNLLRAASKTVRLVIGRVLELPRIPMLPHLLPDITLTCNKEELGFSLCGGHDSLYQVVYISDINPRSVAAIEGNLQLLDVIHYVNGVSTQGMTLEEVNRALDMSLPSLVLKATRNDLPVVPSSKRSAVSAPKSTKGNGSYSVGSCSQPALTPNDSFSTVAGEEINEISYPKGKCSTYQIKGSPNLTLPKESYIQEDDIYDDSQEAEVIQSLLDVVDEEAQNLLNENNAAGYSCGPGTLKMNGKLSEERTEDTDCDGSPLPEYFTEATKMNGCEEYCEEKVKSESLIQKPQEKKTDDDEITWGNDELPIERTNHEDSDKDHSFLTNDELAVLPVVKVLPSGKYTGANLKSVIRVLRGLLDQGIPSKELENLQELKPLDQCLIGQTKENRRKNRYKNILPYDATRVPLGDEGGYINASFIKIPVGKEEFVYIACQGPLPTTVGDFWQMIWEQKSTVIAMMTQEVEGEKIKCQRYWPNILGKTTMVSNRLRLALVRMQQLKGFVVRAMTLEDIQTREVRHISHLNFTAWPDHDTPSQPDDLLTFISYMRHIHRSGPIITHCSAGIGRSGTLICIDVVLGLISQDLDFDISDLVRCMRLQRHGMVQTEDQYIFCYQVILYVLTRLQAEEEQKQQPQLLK

PTPN14 (PTP36) = molecular target: T2, PTPN14 (PTP36) (Homo sapiens, UniProt Q15678)
T2 construct: 908-1187
T2 sequence (Q15678 1-1187): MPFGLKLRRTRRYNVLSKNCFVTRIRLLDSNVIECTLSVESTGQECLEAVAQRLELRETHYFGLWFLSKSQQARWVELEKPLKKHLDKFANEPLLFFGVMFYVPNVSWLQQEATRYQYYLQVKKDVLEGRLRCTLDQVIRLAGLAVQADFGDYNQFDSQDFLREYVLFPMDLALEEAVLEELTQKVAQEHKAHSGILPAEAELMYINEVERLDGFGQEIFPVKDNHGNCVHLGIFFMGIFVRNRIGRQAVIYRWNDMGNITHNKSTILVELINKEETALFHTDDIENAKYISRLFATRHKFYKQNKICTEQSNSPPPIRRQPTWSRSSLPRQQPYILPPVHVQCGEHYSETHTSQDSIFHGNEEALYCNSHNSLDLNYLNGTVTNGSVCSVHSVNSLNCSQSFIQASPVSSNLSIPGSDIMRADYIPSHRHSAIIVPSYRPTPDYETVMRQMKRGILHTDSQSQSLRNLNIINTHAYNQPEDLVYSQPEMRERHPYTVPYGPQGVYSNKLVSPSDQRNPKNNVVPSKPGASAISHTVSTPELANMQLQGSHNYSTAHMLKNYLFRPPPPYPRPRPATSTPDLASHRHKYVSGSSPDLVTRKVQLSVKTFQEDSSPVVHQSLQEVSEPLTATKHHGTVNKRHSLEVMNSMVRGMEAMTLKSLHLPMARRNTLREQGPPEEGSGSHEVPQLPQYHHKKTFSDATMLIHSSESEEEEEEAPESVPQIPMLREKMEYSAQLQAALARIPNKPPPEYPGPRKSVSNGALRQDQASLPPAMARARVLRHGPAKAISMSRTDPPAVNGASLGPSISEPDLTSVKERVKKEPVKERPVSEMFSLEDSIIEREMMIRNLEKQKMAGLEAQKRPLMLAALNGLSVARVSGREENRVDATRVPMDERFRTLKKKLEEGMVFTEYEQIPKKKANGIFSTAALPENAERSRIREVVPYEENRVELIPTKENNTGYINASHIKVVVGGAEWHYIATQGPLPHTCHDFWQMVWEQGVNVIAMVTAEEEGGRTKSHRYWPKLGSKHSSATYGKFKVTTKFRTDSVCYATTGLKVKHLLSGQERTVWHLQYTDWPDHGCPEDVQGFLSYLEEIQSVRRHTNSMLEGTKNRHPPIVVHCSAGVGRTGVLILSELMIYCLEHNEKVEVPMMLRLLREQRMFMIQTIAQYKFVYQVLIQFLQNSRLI

PTPN2 (TCPTP) = molecular target: T3, PTPN2 (TCPTP) (Homo sapiens, UniProt P17706)
T3 construct: 1-387
T3 sequence (P17706 1-415): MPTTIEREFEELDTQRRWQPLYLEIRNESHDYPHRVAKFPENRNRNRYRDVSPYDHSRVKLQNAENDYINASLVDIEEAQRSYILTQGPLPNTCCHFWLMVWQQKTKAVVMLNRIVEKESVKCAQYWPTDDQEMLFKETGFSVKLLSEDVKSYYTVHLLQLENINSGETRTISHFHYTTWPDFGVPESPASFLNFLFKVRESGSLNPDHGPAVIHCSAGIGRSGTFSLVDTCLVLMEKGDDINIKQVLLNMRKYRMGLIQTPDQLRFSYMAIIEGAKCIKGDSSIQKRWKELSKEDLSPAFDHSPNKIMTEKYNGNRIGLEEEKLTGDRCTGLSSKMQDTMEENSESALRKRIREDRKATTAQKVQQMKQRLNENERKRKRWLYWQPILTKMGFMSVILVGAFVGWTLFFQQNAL

## C[C@@H]1CC[C@@]2(OC1)O[C@H]1C[C@H]3[C@@H]4CC=C5C[C@@H](O[C@@H]6O[C@H](CO)[C@@H](O[C@@H]7O[C@@H](CO)[C@H](O)[C@H]7O)[C@H](O)[C@H]6O[C@@H]6O[C@@H](C)[C@H](O)[C@@H](O)[C@H]6O)CC[C@]5(C)[C@H]4CC[C@]3(C)[C@H]1[C@@H]2C [polyphyllin D]
PTPN13 (PTP-BAS)
  inhibition at 20 µM: 0%
PTPN14 (PTP36)
  inhibition at 20 µM: 0%
PTPN2 (TCPTP)
  inhibition at 20 µM: 7.5%
